# Patent US20100009970A1, “COMPOSITIONS AND METHODS FOR TREATMENT OF VIRAL DISEASES” (Combinatorx (Singapore) Pte. Ltd., priority 2008, published 2010)
# Counter-ions that a name gives are not always drawn. Like-named read-outs stand apart in the source and are kept apart here.
# What was measured:
# [1] = system: Huh7 cells expressing a subgenomic RNA replicon of Con1 (genotype 1b) sequence origin
# in vitro = conditions: human
# [2] = system: Huh7 cells expressing a subgenomic RNA replicon of Con1 (genotype 1b) sequence origin; test: microbe, parasite or virus in culture; conditions: Hepatitis C virus
# [3] = Huh-7, read-out: IC50 (uM) [SG]
# [4] = Huh-7, read-out: Max Effect@CC30 (inhibition)
# [5] = Huh-7, read-out: Max effect @CC30 (%)
# [6] = Huh-7, read-out: Max Effect @CC30 (inhibition)
# [7] = GETYPE1B, Huh-7, 72 h, read-out: Max Effect @CC30 (inhibition)
# [8] = Huh-7, 48 h, read-out: Max Effect
Structure (SMILES),CC50 (Huh7 parental cells),IC50 ([1]; read-out: IC50 (uM) [SG]),CC50 (Huh7 parental cells; human),CC50 (in vitro; CC50 (uM)),CC50 (in vitro; CC50 (uM) [SG]),"IC50 [2, 3]","Emax [2, 4]",Synergy Score [1],further results
"CN[C@H]1CC[C@@H](c2ccc(Cl)c(Cl)c2)c2ccccc21.Cl [(1R,4S) Sertraline Hydrochloride]",14.2 ± 0.16 µM,,,,,,,,Max Effect@CC30 (inhibition) [1]: 90.8 ± 1.6%; IC90 ([1]; Hydrochloride): 12.1 ± 0.83 µM
"CN[C@H]1CC[C@H](c2ccc(Cl)c(Cl)c2)c2ccccc21.Cl [(1S,4R) Sertraline Hydrochloride]",7.51 ± 0.8 µM,,,,,,,,Max Effect@CC30 (inhibition) [1]: 50 ± 17.4%
"CN[C@H]1CC[C@@H](c2ccc(Cl)c(Cl)c2)c2ccc(CS(C)(=O)=O)cc21 [(1S,4S)-4-(3,4-dichlorophenyl)-N-methyl-7-(methylsulfonylmethyl)-1,2,3,4-tetrahydronaphthalen-1-amine]",,2.33 µM,14.2 µM,13 µM,13 µM,1.68 µM,84.8%,,"IC50 ([2]; Huh-7): 1.68 µM; IC90 ([2]; Huh-7): 7.89 µM; Emax [2, 5]: 84.8%; IC50 ([2]; Huh-7, read-out: SA IC50 (uM)): 1.68 µM"
"Cl.N[C@H]1CC[C@@H](c2ccc(Cl)c(Cl)c2)c2ccccc21 [(1S,4S)-Desmethyl Sertraline, Hydrochloride]",6.68 µM,,,,,,,2.14,IC50 [1]: 5.35 µM; Max Effect [1]: 98%; TI (CC50/IC50) [1]: 1.247
"CN(C)[C@H]1CC[C@@H](c2ccc(Cl)c(Cl)c2)c2ccc(C(N)=O)cc21 [(5S,8S)-5-(3,4-dichlorophenyl)-8-(dimethylamino)-5,6,7,8-tetrahydronaphthalene-2-carboxamide]",,3.18 µM,23.7 µM,20.7 µM,21.7 ± 1.44 µM,2.62 ± 0.48 µM,94.3 ± 0.7%,,"IC90 [1]: 8.73 µM; IC50 ([2]; Huh-7): 2.96 µM; IC90 ([2]; Huh-7): 8.77 ± 0.05 µM; Emax [2, 6]: 94.8%"
"CSc1ccc(Oc2ccc(Br)cc2CN(C)C)cc1C [Compound 9, (5-bromo-2-(3-methyl-4-(methylthio)phenoxy)phenyl)-N,N-dimethylmethanamine]",,,> 50 µM,,54.8 µM,14.5 µM,79%,,
"CNCc1cc(S(N)(=O)=O)ccc1Oc1ccc(SC)c(C)c1 [Compound 48, 4-(3-methyl-4-(methylthio)phenoxy)-3-((methylamino)methyl)benzenesulfonamide]",,2.26 ± 0.11 µM,> 50 µM,39.6 µM,39.6 µM,2.33 µM,95.5%,,"IC90 [1]: 8.26 ± 2.49 µM; IC50 ([2]; Huh-7): 2.33 µM; IC90 ([2]; Huh-7): 10 µM; Emax [2, 5]: 95.5%; IC50 ([2]; Huh-7, read-out: SA IC50 (uM)): 2.33 µM"
"CN(C)[C@H]1CC[C@@H](c2ccc(Cl)c(Cl)c2)c2ccc(C(=O)NC3CC3)cc21 [N,N-Dimethyl Sertraline A-Ring Reverse Cyclopropane Carboxam] [(5S,8S)—N-cyclopropyl-5-(3,4-dichlorophenyl)-8-(dimethylamino)-5,6,7,8-tetrahydronaphthalene-2-carboxamide]",,8.63 µM,18.2 µM,,,,,,
"CN[C@H]1CC[C@@H](c2ccc(Cl)c(Cl)c2)c2ccc(CN)cc21 [Sertraline A-Ring Methanamine, (1S,4S)-7-(aminomethyl)-4-(3,4-dichlorophenyl)-N-methyl-1,2,3,4-tetrahydronaphthalen-1-amine]",,1.67 µM,3.68 µM,3.7 µM,3.7 µM,1.59 µM,85.9%,,"IC50 ([2]; Huh-7): 1.6 µM; IC90 ([2]; Huh-7): 3.28 µM; Emax [2, 6]: 85.9%; Emax [2, 5]: 85.9%; IC50 ([2]; Huh-7, read-out: SA IC50 (uM)): 1.59 µM"
CNC1CCC(c2ccccc2OC)c2ccccc21 (stereo not shown) [Sertraline B-Ring Ortho-Methoxy],> 22.3 µM,,,,,,,0.81,Max Effect [1]: 24%
CNC1CCC(c2cccs2)c2ccccc21 (stereo not shown) [Sertraline B-ring 2-Thiophene],88.5 µM,52.3 µM,,,,,,,Max Effect@CC30 (inhibition) [1]: 42%
"CNC1CCC(c2ccccc2OC)c2ccccc21 (stereo not shown) [Sertraline B-ring Ortho Methoxy, 4-(2-methoxyphenyl)-N-methyl-1,2,3,4-tetrahydronaphthalen-1-amine]",,,> 50 µM,58.6 µM,58.6 µM,,,,
CNC1CCC(c2cccc(OC)c2)c2ccccc21 (stereo not shown) [Sertraline B-ring m-Methoxy],> 50 µM,,,,,,,,Max Effect@CC30 (inhibition) [1]: 27.70%
"CN[C@H]1CC[C@@H](c2ccc(Cl)c(Cl)c2)c2ccccc21 [Sertraline HCL, Sertraline HCl, reference compound]",,,11.3 µM,,11.7 ± 2.03 µM,,62.6 ± 21.5%,,"CC50 at 72 h (in vitro; CC50 (uM)): 11.8 ± 2.09 µM; Emax [2, 7]: 62 ± 11.2%"
"CN[C@H]1CC[C@@H](c2ccc(Cl)c(Cl)c2)c2ccc(S(=O)(=O)N(C)C)cc21 [Sertraline N,N-dimethylsulfonamide, (5S,8S)-5-(3,4-dichlorophenyl)-N,N-dimethyl-8-(methylamino)-5,6,7,8-tetrahydronaphthalene-2-sulfonamide]",,,,8.87 µM,8.87 µM,6.69 µM,38%,0.53,"TI (CC50/IC50) [1]: 1.076; CC50 (in vitro; CC50): 7.85 µM; Emax [2, 7]: 38%; IC50 ([2]; Huh-7, 48 h): 7.3 µM; Emax [2, 8]: 91%; IC50 ([2]; Huh-7, 72 h): 6.69 µM"
"CN[C@H]1CC[C@@H](c2ccc(Cl)c(Cl)c2)c2ccc(C#N)cc21 [Sertraline Nitrile, (5S,8S)-5-(3,4-dichlorophenyl)-8-(methylamino)-5,6,7,8-tetrahydronaphthalene-2-carbonitrile]",,,,14.8 µM,14.8 µM,4.81 µM,87%,0.52,"TI (CC50/IC50) [1]: >1.796; CC50 (in vitro; CC50): > 13.4 µM; Emax [2, 7]: 87%; IC50 ([2]; Huh-7, 48 h): 7.46 µM; Emax [2, 8]: 89%; IC50 ([2]; Huh-7, 72 h): 4.81 µM"
"CN[C@H]1CC[C@@H](c2ccc(Cl)c(Cl)c2)c2ccc(S(N)(=O)=O)cc21 [Sertraline Sulfonamide NH2, (5S,8S)-5-(3,4-dichlorophenyl)-8-(methylamino)-5,6,7,8-tetrahydronaphthalene-2-sulfonamide]",,,,9.99 ± 4.4 µM,9.99 ± 4.4 µM,3.65 ± 2.3 µM,63.5 ± 6.4%,0.49,"TI (CC50/IC50) [1]: >2.226; CC50 (in vitro; CC50): > 13.4 µM; Emax [2, 7]: 63.5 ± 6.4%; IC50 ([2]; Huh-7, 48 h): 6.02 µM; Emax [2, 8]: 91%; IC50 ([2]; Huh-7, 72 h): 3.65 ± 2.3 µM"
"CN[C@H]1CC[C@@H](c2ccc(Cl)c(Cl)c2)c2ccc(S(=O)(=O)NC)cc21 [Sertraline Sulfonamide, (5S,8S)-5-(3,4-dichlorophenyl)-N-methyl-8-(methylamino)-5,6,7,8-tetrahydronaphthalene-2-sulfonamide]",,,,13.04 ± 0.1 µM,13.04 ± 0.1 µM,6.87 ± 0.2 µM,40.5 ± 5%,0.43,"TI (CC50/IC50) [1]: 1.605; CC50 (in vitro; CC50): 11.6 µM; Emax [2, 7]: 40.5 ± 5%; IC50 ([2]; Huh-7, 48 h): 7.26 µM; Emax [2, 8]: 94%; IC50 ([2]; Huh-7, 72 h): 6.87 ± 0.2 µM"
